Source: paper PMC6273621, “Synthesis and the Biological Activity of Phosphonylated 1,2,3-Triazolenaphthalimide Conjugates” (Molecules, 2016)
Read-outs that look alike come from different tables or passages of the source.

Columns and labels:
TK+ VZV strain = experiment: microbe, parasite or virus in culture; assay type: cell-based, varicella-zoster virus (VZV) strain Oka; conditions: for EC50: Human alphaherpesvirus 3, HEL, read-out: Antiviral Activity EC50, TK+ VZV Strain, HEL cell cultures, concentration reducing virus plaque formation by 50%
TK− VZV strain = experiment: microbe, parasite or virus in culture; assay type: cell-based, varicella-zoster virus (VZV) strain 07−1; conditions: Human alphaherpesvirus 3, HEL, read-out: Antiviral Activity EC50, TK− VZV Strain, HEL cell cultures; concentration reducing virus plaque formation by 50%
HEL cells = experiment: Cytotoxicity, cell morphology (MCC) in HEL cells; assay type: cell-based, human; conditions: minimum cytotoxic concentration causing microscopically detectable alteration of cell morphology
Text: The cytotoxicity of the tested compounds toward the uninfected host cells was defined as the minimum cytotoxic concentration (MCC) that causes a microscopically detectable alteration of normal cell morphology.

[1] = test system: murine leukemia (L1210) cells; experiment: Cytostatic activity, L1210 cell proliferation; assay type: cell-based; conditions: Mus musculus, read-out: IC50 L1210
Experimental: (§1) All assays were performed in 96-well microtiter plates. To each well were added (5–7.5) × 10^4 tumor cells and a given amount of the test compound. The cells were allowed to proliferate for 48 h (murine leukemia L1210 cells) or 72 h (human lymphocytic CEM and human cervix carcinoma HeLa cells) at 37 °C in a humidified CO2-controlled atmosphere. At the end of the incubation period, the cells were counted in a Coulter counter.

[2] = test system: human T-lymphocyte (CEM) cells; experiment: Cytostatic activity, CEM cell proliferation; assay type: cell-based; conditions: CCRF-CEM, 72 h, read-out: IC50 CEM
Experimental: as §1

[3] = test system: human cervix carcinoma cells (HeLa); experiment: Cytostatic activity, HeLa cell proliferation; assay type: cell-based; conditions: 72 h, read-out: IC50 HeLa
Experimental: as §1

[4] = test system: human dermal microvascular endothelial HMEC-1 cells; experiment: Cytostatic activity, HMEC-1 cell proliferation; assay type: cell-based

SMILES	EC50 (TK+ VZV strain) [µM]	EC50 (TK− VZV strain) [µM]	Cytotoxicity, Cell Morphology (MCC) (HEL cells) [μM]	IC50 ([1]; L1210, cell proliferation, 48 h) [µM]	IC50 ([2]; cell proliferation) [µM]	IC50 ([3]; cell proliferation) [µM]	IC50 ([4]; HMEC-1, cell proliferation, read-out: IC50 HMEC-1) [µM]	IC50 ([1]; L1210, 48 h) [µM]	IC50 [2] [µM]	IC50 [3] [µM]	IC50 ([4]; HMEC-1, read-out: IC50 HMEC-1) [µM]	melting point [°C]	Potency toward the TK+ VZV strain (in words) (TK+ VZV strain; HEL cell cultures)
CN(C)CCN1C(=O)c2cccc3cc(N)cc(c23)C1=O [Amonafide, reference compound]	5.36	7.82	20	1 ± 0.4	0.54 ± 0.5	2 ± 1.2	0.31	–	–	–	–	–	–
CCOP(=O)(CCCCn1cc(CN2C(=O)c3cccc4cccc(c34)C2=O)nn1)OCC [Compound 14d, Diethyl 4-{4-[(1,3-Dioxo-1H-benzo[de]isoquinolin-2(3H)-yl)methyl]-1H-1,2,3-triazol-1-yl}butylphosphonate]	86.4	56.7	>100	–	–	–	–	156 ± 40	119 ± 3	150 ± 11	180 ± 54	131 to 132	–
CCOP(=O)(CC(O)Cn1cc(CN2C(=O)c3cccc4c(Br)ccc(c34)C2=O)nn1)OCC (stereo not drawn) [Compound 15f, Diethyl 3-{4-[(6-Bromo-1,3-dioxo-1H-benzo[de]isoquinolin-2(3H)-yl)methyl]-1H-1,2,3-triazol-1-yl}-2-hydroxypropylphosphonate]	86.4	> 100	>100	–	–	–	–	23 ± 3	60 ± 13	87 ± 21	152 ± 1	152 to 153	–
CCOP(=O)(CCOCCn1cc(CN2C(=O)c3cccc4c(Br)ccc(c34)C2=O)nn1)OCC [Compound 15h, Diethyl 2-(2-{4-[(6-Bromo-1,3-dioxo-1H-benzo[de]isoquinolin-2(3H)-yl)methyl]-1H-1,2,3-triazol-1-yl}ethoxy)ethylphosphonate]	37.1	70.8	>100	–	–	–	–	26 ± 2	29 ± 11	61 ± 15	151	92 to 93	–
CCOP(=O)(CCCCn1cc(CN2C(=O)c3cccc4cc([N+](=O)[O-])cc(c34)C2=O)nn1)OCC [Compound 16d, Diethyl 4-{4-[(5-Nitro-1,3-dioxo-1H-benzo[de]isoquinolin-2(3H)-yl)methyl]-1H-1,2,3-triazol-1-yl}butylphosphonate]	29.9	53.9	>100	–	–	–	–	70 ± 52	95 ± 4	81 ± 4	126 ± 37	150 to 151	–
CCOP(=O)(CCOCCn1cc(CN2C(=O)c3cccc4cccc(c34)C2=O)nn1)OCC [Compound 14h, Diethyl 2-(2-{4-[(1,3-Dioxo-1H-benzo[de]isoquinolin-2(3H)-yl)methyl]-1H-1,2,3-triazol-1-yl}ethoxy)ethylphosphonate]	> 100	74.6	>100	–	–	–	–	196 ± 32	171 ± 25	154 ± 22	222 ± 39	156 to 158	–
CCOP(=O)(CCn1cc(CN2C(=O)c3cccc4c(Br)ccc(c34)C2=O)nn1)OCC [Compound 15b]	34.2	38.1	>100	–	–	–	–	14 ± 1	56 ± 20	62 ± 20	152 ± 1	132 to 134	–
CCOP(=O)(CCCn1cc(CN2C(=O)c3cccc4cc([N+](=O)[O-])cc(c34)C2=O)nn1)OCC [Compound 16c, Diethyl 3-{4-[(5-Nitro-1,3-dioxo-1H-benzo[de]isoquinolin-2(3H)-yl)methyl]-1H-1,2,3-triazol-1-yl}propylphosphonate]	32.8	47.8	>100	–	–	–	–	34 ± 9	55 ± 23	29 ± 17	136 ± 22	113 to 114	–
CCOP(=O)(OCC)C(O)Cn1cc(CN2C(=O)c3cccc4cc([N+](=O)[O-])cc(c34)C2=O)nn1 (stereo not drawn) [Compound 16e, Diethyl 2-{4-[(5-Nitro-1,3-dioxo-1H-benzo[de]isoquinolin-2(3H)-yl)methyl]-1H-1,2,3-triazol-1-yl}-1-hydroxyethylphosphonate]	83.6	> 100	>100	–	–	–	–	111 ± 39	127 ± 14	132 ± 2	> 250	212 to 213	–
CCOP(=O)(CCn1cc(CN2C(=O)c3cccc4cc([N+](=O)[O-])cc(c34)C2=O)nn1)OCC [Compound 16b, Diethyl 2-{4-[(5-Nitro-1,3-dioxo-1H-benzo[de]isoquinolin-2(3H)-yl)methyl]-1H-1,2,3-triazol-1-yl}ethylphosphonate]	> 100	27.6	100	–	–	–	–	> 250	176 ± 37	54 ± 21	118 ± 71	–	no potency
CCOP(=O)(Cn1cc(CN2C(=O)c3cccc4cc([N+](=O)[O-])cc(c34)C2=O)nn1)OCC [Compound 16a, Diethyl {4-[(5-Nitro-1,3-dioxo-1H-benzo[de]isoquinolin-2(3H)-yl)methyl]-1H-1,2,3-triazol-1-yl}methylphosphonate]	39.1	64.5	>100	–	–	–	–	66 ± 7	69 ± 1	44 ± 19	154 ± 1	147 to 148	–
CCOP(=O)(CCCCn1cc(CN2C(=O)c3cccc4c(Br)ccc(c34)C2=O)nn1)OCC [Compound 15d, Diethyl 4-{4-[(6-Bromo-1,3-dioxo-1H-benzo[de]isoquinolin-2(3H)-yl)methyl]-1H-1,2,3-triazol-1-yl}butylphosphonate]	40.4	37.5	100	–	–	–	–	17 ± 3	22	55 ± 2	92 ± 43	–	–
CCOP(=O)(OCC)C(O)Cn1cc(CN2C(=O)c3cccc4cccc(c34)C2=O)nn1 (stereo not drawn) [Compound 14e, Diethyl 2-{4-[(1,3-Dioxo-1H-benzo[de]isoquinolin-2(3H)-yl)methyl]-1H-1,2,3-triazol-1-yl}-1-hydroxyethylphosphonate]	69.9	> 100	>100	–	–	–	–	> 250	> 250	≥ 250	≥ 250	186 to 188	–
CCOP(=O)(CNC(=O)Cn1cc(CN2C(=O)c3cccc4c(Br)ccc(c34)C2=O)nn1)OCC [Compound 15i, Diethyl 2-{4-[(6-Bromo-1,3-dioxo-1H-benzo[de]isoquinolin-2(3H)-yl)methyl]-1H-1,2,3-triazol-1-yl}acetamido-methylphosphonate]	–	–	–	–	–	–	–	31 ± 2	137 ± 72	> 250	> 250	173 to 174	–
CCOP(=O)(CCOCCn1cc(CN2C(=O)c3cccc4cc([N+](=O)[O-])cc(c34)C2=O)nn1)OCC [Compound 16h, Diethyl 2-(2-{4-[(5-Nitro-1,3-dioxo-1H-benzo[de]isoquinolin-2(3H)-yl)methyl]-1H-1,2,3-triazol-1-yl}ethoxy)ethylphosphonate]	40.9	64.5	>100	–	–	–	–	64 ± 11	66	56 ± 16	152 ± 1	–	–
